Reference: US11491232B2, “Lactuloside compounds and preparation and use thereof” (Fruithy Holdings Limited, priority 2017, dated 2022)
Where two headings read alike, the source gives them in different places.

Tests used:
[1] = system: ulcerative colitis models of Wistar rat induced by enema with trinitrobenzenesulfonic acid (TNBS); assay: Pharmacodynamic effect of intragastric administration in ulcerative colitis models of Wistar rat induced by TNBS enema; assay type: in vivo; details: Wistar rats; for colon coefficient on Day 8 after modeling compared with the model control group / histopathological score of colon on Day 8 after modeling compared with the model control group / body weight change (increase) on Day 8 after modeling as compared to the model group: intragastric qd × 7, Compound 1 1.91 mg/kg; for colon coefficient on Day 8 after modeling compared with the model control group: prednisolone 1 mg/kg (FIG. 6); for histopathological score of colon on Day 8 after modeling compared with the model control group: prednisolone 1 mg/kg (FIG. 7); for body weight change (increase) on Day 8 after modeling as compared to the model group: prednisolone 1 mg/kg, only Compound 1 vs model significant (FIG. 5)
Protocol: Comparison research among therapeutic effects of Compound 1 and a commercial formulation of prednisolone (prednisolone tablet, produced by Wuhan Yuancheng Co-Creation Technology Co., Ltd.) on ulcerative colitis models of Wistar rats after intragastric administration was carried out to further evaluate the improvement in main therapeutic effect indexes of the intragastric perfusion therapy of Compound 1 and compare it with that of treatment group with equivalent moles of a commercial formulation of prednisolone, thereby providing pharmacodynamic support for further development of Compound 1.
According to the experiment, 40 male Wistar rats (180-220 grams) were purchased, and randomly divided into four groups (i.e., physiological saline control group, model control group, prednisolone group and Compound 1 group), and there were 10 animals in each group. Except the physiological saline control group, ulcerative colitis animal models were produced by once enema administration of a mixed solution of 2.5% TNBS-50% ethanol (containing 80 mg/kg TNBS) to experiment animals in other three groups in an amount of 3.2 ml/kg. For the physiological control group, physiological saline was once administered by enema in an amount of 3.2 ml/kg. At 24 h after the modeling administration, the corresponding solvent control or therapeutic drugs were administered by enema depending on animal groups (qd×7d (one dose per day, for 7 days)), and detailed grouping and administration information is as shown in Table 14 below.
During the investigation, the main indexes to be observed include: death of animals, clinical observation, body weight, colon coefficient, histopathological examination of animals, and so on. For each experiment group, on Day 8 after modeling, animals were sacrificed. Colon tissues were collected to calculate the colon coefficient (colon coefficient=colon weight (g)/animal body weight (g) * 100%).

[2] = Test on stability in mediums in vitro (buffer solutions with different pH, simulated intestinal fluid, simulated gastric fluid); assay type: physicochemical
Protocol: At 37° C., Compound 17 was incubated in different mediums (buffer solutions with different pH, a simulated intestinal fluid containing pancreatin, and simulated gastric fluid containing pepsin).
(§1) Other typical example compounds were tested for stability according to the above method, and the test results are shown in Table 8 below.

[3] = rat, in vivo; for Concentration of prednisolone in the content, The first half segment of Small intestine / Concentration of prednisolone in the content, The last half segment of Small intestine: male, Sprague-Dawley (SD)
Protocol: (§2) For the experiment animals of Group 1, Group 2 and Group 3, at each time point of 30 min, 1 h, 2 h, 3 h, 4 h, 5 h, 6 h, 8 h, and 10 h after the administration, 4 animals were randomly selected and sacrificed. The blood samples were collected, and the contents in the stomach and various segments of the intestine tract (the first half segment of the small intestine, the last half segment of the small intestine, the first third segment of the colon (including cecum), and the last two thirds segment of the colon) were weighed. […] 4 animals of Group 4 were sacrificed at the time point of 10 h. The blood samples and the contents in various segments of the gastrointestinal tract were collected as blank control.

[4] = Systemic pharmacokinetics (plasma) after oral administration to SD rats; assay type: in vivo
Protocol: as §2

[5] = system: colon flora; assay: Stability in the presence of colon flora (content in colon of rat); assay type: in vitro ADME, SD rat; details: male, Sprague-Dawley (SD), rat, 1 h, pH 6.8
Protocol: A phosphate buffer solution with a pH of 7.0 was formulated, and then CO2 was introduced to the solution to adjust the pH to 6.8. Then, the content in colon of a male SD rat (body weight: 180-220 g) was placed in a water bath at 37° C., and added into the phosphate buffer solution with a pH of 6.8 as prepared above under the protection of N2 to a concentration of 20% (w/v). The buffer solution was kept in an oxygen-free environment. Then, the test Compound 17 was added to the buffer solution, and the solution was stirred uniformly.
Supernatant was analyzed with HPLC, where the amount of each ingredient was calculated by normalization.
Note: in the above table, “T14.148 (%)” represents the percentage of peak area of the material with a retention time of 14.148 min “T14.713 (%)” represents the percentage of peak area of the material with a retention time of 14.713 min. “T16.392 (%)” represents the percentage of peak area of the material with a retention time of 16.392 min. “T22.624 (%)” represents the percentage of peak area of the material with a retention time of 22.624 min.
as §1

[6] = Simulated intestinal fluid (containing pancreatin) (pH 6.8) (8 h)
[7] = intragastric administration, FIG. 3

C[C@]12C=CC(=O)C=C1CC[C@@H]1[C@@H]2[C@@H](O)C[C@@]2(C)[C@H]1CC[C@]2(O)C(=O)COC1(CO)O[C@H](CO)[C@@H](O[C@@H]2O[C@H](CO)[C@H](O)[C@H](O)[C@H]2O)[C@@H]1O (stereo partly drawn) [Compound 1, (11β)-11,17-dihydroxyl-21-{[4-O-(β-D-galactopyranosyl)-D-fructofuranosyl]oxy}pregna-1,4-diene-3,20-dione]
day after modeling on which the body weight began to rise ([1]; TNBS model, intragastric qd × 7, 1.91 mg/kg): 4 days | colon coefficient on Day 8 after modeling compared with the model control group [1]: significantly lower than that for the model control group (p<0.05) | histopathological score of colon on Day 8 after modeling compared with the model control group [1]: significantly lower than that for the model control group (p<0.05) | body weight change (increase) on Day 8 after modeling as compared to the model group [1]: statistically significant | Percentage of the example compound remaining (Composition, %) [2, 6]: 99.0% | Percentage of the released active drug (prednisolone, dexamethasone, budesonide, apremilast or prucalopride) (Composition, %) [2, 6]: 0.2% | Percentage of the example compound remaining (Composition, %) ([2]; Water (pH 1.2) (2 h)): 30.4% | Percentage of the released active drug (prednisolone, dexamethasone, budesonide, apremilast or prucalopride) (Composition, %) ([2]; Water (pH 1.2) (2 h)): 67.2% | passage through the gastrointestinal tract of a mammal (absorption and hydrolysis) [3]: without being absorbed significantly by the gastrointestinal tract and hydrolyzed significantly by endogenous enzymes of a mammal host | factor of increase of maximum concentrations (Cmax) of local prednisolone in the cecum and colon sites as compared to prednisolone group ([3]; po): 65-360 | total exposure (AUC) of local prednisolone in the cecum and colon sites compared with prednisolone group ([3]; po): much higher than the prednisolone (original form) group | plasma prednisolone Cmax as compared to free prednisolone group [4, 7]: very low | plasma prednisolone time to peak as compared to free prednisolone group [4, 7]: significantly delayed | concentration at 0.5 h ([4]; male, Sprague-Dawley, rat, plasma, oral, 9.55 mg/kg intragastric, 0.5 h (only time point with detection), read-out: concentration of Compound 1 in the rat plasma): 10.4 ng/mL | Percentage of the example compound remaining (Composition, %) [5]: 22.1% | Percentage of the released active drug (prednisolone, dexamethasone, budesonide, apremilast or prucalopride) (Composition, %) [5]: 39.7%

C[C@]12C=CC(=O)C=C1CC[C@@H]1[C@@H]2[C@@H](O)C[C@@]2(C)[C@H]1CC[C@]2(O)C(=O)CO [Prednisolone, prednisolone]
colon coefficient on Day 8 after modeling compared with the model control group [1]: not statistically significant | histopathological score of colon on Day 8 after modeling compared with the model control group [1]: not statistically significant | body weight change (increase) on Day 8 after modeling as compared to the model group [1]: higher than that for the model group | Concentration of prednisolone in the content, The first half segment of Small intestine ([3]; 0.5 h): 16.66 ± 2.89 nmol/g | Concentration of prednisolone in the content, The last half segment of Small intestine ([3]; 0.5 h): 16.27 ± 3.34 nmol/g | Concentration of prednisolone in the content, The first half segment of Small intestine ([3]; 1 h): 19.20 ± 3.44 nmol/g | Concentration of prednisolone in the content, The last half segment of Small intestine ([3]; 2 h): 19.81 ± 2.77 nmol/g | Concentration of prednisolone in the content, The first half segment of Small intestine ([3]; 3 h): 21.16 ± 2.18 nmol/g | Concentration of prednisolone in the content, The last half segment of Small intestine ([3]; 3 h): 20.47 ± 3.08 nmol/g | Concentration of prednisolone in the content, The first half segment of Small intestine ([3]; 4 h): 17.38 ± 3.04 nmol/g | Concentration of prednisolone in the content, The last half segment of Small intestine ([3]; 4 h): 13.27 ± 2.09 nmol/g | Concentration of prednisolone in the content, The first half segment of Small intestine ([3]; 5 h): 7.34 ± 1.38 nmol/g | Concentration of prednisolone in the content, The last half segment of Small intestine ([3]; 5 h): 6.94 ± 1.35 nmol/g | Concentration of prednisolone in the content, The first half segment of Small intestine ([3]; 6 h): 0.36 ± 0.05 nmol/g | Concentration of prednisolone in the content, The last half segment of Small intestine ([3]; 6 h): 0.32 ± 0.06 nmol/g | Concentration of prednisolone in the content, The last half segment of Small intestine ([3]; 8 h): 0.04 ± 0.01 nmol/g | Cmax value of prednisolone in the content, Stomach ([3]; po, 5 mg/kg): 370.53 nmol/g | Cmax value of prednisolone in the content, The first half segment of Small intestine ([3]; po, 5 mg/kg): 51.92 nmol/g | Cmax value of prednisolone in the content, The first third segment (including cecum) of Colon ([3]; po, 5 mg/kg): 0.70 nmol/g | Cmax value of prednisolone in the content, The last half segment of Small intestine ([3]; po, 5 mg/kg): 22.05 nmol/g | Cmax value of prednisolone in the content, The last two thirds segment of Colon ([3]; po, 5 mg/kg): 0.14 nmol/g
